Legend:
HIV-1KB9 = test: Viral infection assay, dual-tropic isolate; assay type: cell-based; details: dual-tropic HIV-1KB9
Procedure: Production of recombinant HIV-1 expressing luciferase. 293T cells were cotransfected with an Env expression plasmid, a firefly luciferase-expressing lentiviral vector (pHIVcc2.luc) and an HIV-1-based packaging plasmid (psPAX2, cat #11348, NIH AIDS Research and Reference Reagent Program) at a ratio of 1:6:3 using Effectene (Qiagen, Germantown, Md.). After 48 hours, the supernatant was collected, buffered with 50 mM Hepes pH 7.4 (final concentration) and centrifuged for 5 minutes at 750×g and 4° C. The virus-containing supernatant was used directly or frozen at −80° C.
(§1) Viral infection assay. Each test compound was serially diluted in DMSO in a 96-well B&W isoplate (PerkinElmer, Boston, Mass.) using an HP D300 Digital Dispenser, to a final volume of 450 nl. DMSO was used as a control. Viruses pseudotyped with a specific Env were added to each well and incubated briefly at room temperature. […] The activity of the firefly luciferase, which was used as a reporter protein in the system, was measured with a Centro LB 960 luminometer (Berthold Technologies, Oak Ridge, Tenn.). One hundred microliters of assay buffer (15 mM MgSO4, 15 mM KH2PO4/K2HPO4 pH 7.8, 1 mM ATP and 1 mM DTT) was injected to each well, followed by a 50 μl injection of 1 mM Dluciferin potassium salt (BD Pharmingen, San Jose, Calif.); luminescence was measured for 2 sec. […]

HIV-1JR-FL = test: Infection of human PBMC by HIV-1JR-FL; assay type: cell-based; details: HIV-1JR-FL infection of human PBMC
Procedure: (§2) Peripheral blood mononuclear cells (PBMC). Human blood was purchased from Research Blood Components, who obtained a consent firm from each donor, according to the American Association of Blood Banks guidelines, PBMC were isolated from the whole blood using a Ficoll-Paque gradient (Ficoll-Paque PLUS, Amersham Biosciences) and activated at concentration of 10^6 live cells/ml for 3 days in RPMI-PBMC medium (RPMI-1640 supplemented with 20% FBS, 10% IL-2 (Hemagen, Columbia, Md.), 100 μg/ml primocin (InvivoGen, San Diego, Calif.)) with 4 μg/ml phytohemagglutinin (Sigma-Aldrich, St. Louis, Mo.). In some cases, cells were frozen, thawed and activated prior to the assay.
as §1, with “control.” for “control. Viruses pseudotyped with a specific Env were added to each well and incubated briefly at room temperature.”

A-MLV = test: Infection of human PBMC by control A-MLV; assay type: cell-based, amphotropic murine leukemia virus; details: range of tested concentrations
Procedure: as §2
as §1, with “control.” for “control. Viruses pseudotyped with a specific Env were added to each well and incubated briefly at room temperature.”

[1] = system: HIV-1JR-FL E168K+N188AΔCT Env trimer; test: PG9 antibody binding to cell-surface Env trimer (flow cytometry)
Procedure: (§3) Flow cytometry. […] After 48-72 hours, cells were detached with 5 mM EDTA/PBS and between 0.5-1 million cells were briefly incubated with various concentrations of 18A and then with or without the indicated concentrations of sCD4. C34-Ig (at a final concentration of 20 μg/ml) or a specified antibody (at final concentration of 1 μg/ml) was added to the cells. […] Cells were washed twice and analyzed with a BD FACSCanto II flow cytometer (BD Biosciences). For analysis of resistant mutants (FIG. 5e-g), the measurements were normalized for the level of sCD4 binding of each mutant, and the response of each mutant was further normalized to that of the wild-type HIV-1JR-FL E168K+N188AΔCT Env (herein designated WTKA). […] The sCD4 IC50/sCD4 binding ratio (FIGS. 4c and e) was calculated as follows. Binding of sCD4 to different envelope mutants was measured by flow cytometry and normalized first to 2G12 binding to account for potentially different Env expression levels, and then to sCD4 binding to the wild-type HIV-1JR-FL Env. The IC50 of sCD4 for inhibition of virus infection by each mutant Env was divided by the normalized sCD4 binding to Env-expressing cells to calculate the sCD4 IC50/sCD4 binding value.

[2] = system: cell-surface HIV-1JR-FL WTKA Env; test: Binding of 17b, 19b, 2G12, PGT121 antibodies to cell-surface Env (flow cytometry)
Procedure: as §3

## O=C(N/N=C/c1ccc(O)cc1)Nc1cccc2nsnc12 [Compound 18A]
HIV-1KB9
  inhibition of infection: relatively resistant to inhibition
HIV-1JR-FL
  IC50: 400 nM
A-MLV
  effect on A-MLV infection: No significant effect
[1]; 18A added prior to sCD4 incubation, 37.6% without sCD4, 6.6% with sCD4 alone
  PG9 binding: 24.1%
[1]; absence of sCD4
  basal level of PG9 binding: did not affect
[2]
  binding of 19b and 2G12, sCD4-induced decrease of PGT121 binding: No significant effect
[2]; in the presence of 18A, no sCD4
  17b binding to cell surface-expressed Env trimer: reduction in 17b binding
